Results: PubChem BioAssay AID1963428 (Molecular Pharmacology Branch, DTP, NCI, 2024)

System: 171881-019-R-J1-PDC complex spheroid growth, % test/control
Experiment: Anticancer human tumor 171881-019-R-J1-PDC patient-derived invasive breast carcinoma cell line growth inhibition [Asc]
Conditions: for IC50: curve of first compound; for viability, T/C: stronger effect = lower value
Experimental: Multicellular complex tumor spheroid response to apoptosis pathway targeting inhibitors Alrizomadlin, Pelcitoclax, and Dasminapant in combination with a variety of drugs and investigational agents in selected tumor cell lines
The MDM2 inhibitor alrizomadlin, the Bcl-2/Bcl-xL inhibitor pelcitoclax, and the IAPs inhibitor dasminapant were evaluated both individually and in combination with standard of care and investigational anticancer small molecules within a complex spheroid model of solid tumors. . Complex spheroids include a stromal component modeled by human endothelial cells (HUVEC) and fibroblasts modeled by human mesenchymal stem cells (MSCs). The concentration ranges selected for each drug and investigational agent were based upon clinically achievable concentrations if the clinical Cmax of the agent was known.
Compounds. The drugs and investigational agents: alrizomadlin (APG-115; NSC831270), pelcitoclax (APG-1252; NSC835773), dasminapant (APG-1387;NSC834197), TAK-243 (NSC785004), copanlisib (NSC809693), olaparib (NSC753686), talazoparib (NSC767125), cobimetinib (NSC 768068), eltanexor (KPT-8602, NSC 794443), abemaciclib (NSC 768073), sotorasib (NSC818433), adagrasib (NSC 831453), MRTX-1133 (NSC 836407), Iadademestat (ORY1001, NSC 806812), and RMC-4630 (NSC839698), were obtained from the NCI Developmental Therapeutics Program Chemical Repository. The FDA-approved anticancer drug set is available from the Developmental Therapeutics Program at https://dtp.cancer.gov/organization/dscb/obtaining/available plates.htm. […] The stock solutions were prepared in dimethyl sulfoxide (DMSO, Sigma-Aldrich, St. Louis, MO, cat. D2650) at 800-fold the tested concentration and stored at -70 degrees C prior to their use. All drugs and investigational agents were tested over a range starting from a high concentration at or near the clinical Cmax and decreasing in half-log increments. If the clinical Cmax for an agent had not been determined, the highest concentration tested was 10 microM.
The patient-derived cancer (PDC) cell lines include five colon adenocarcinomas: 186277-243-T-J2-PDC, 616215-338-R-J1-PDC, 439559-082-T-J2-PDC, 463943-066-T-J2-PDC, and 519858-162-T-J1-PDC; three pancreatic carcinomas: 323965-272-R-J2-PDC, 521955-158-R6-J3-PDC, and 521955-158-R2-J5-PDC; two uterine sarcomas: 327498-152-R-J2-PDC and 993429-296-R-J1-PDC; two rhabdomyosarcomas: 755483-174-R-J1-PDC and 772245-204-R-J1-PDC; two soft tissue sarcomas: 126254-015-R-J1-PDC and 494315-158-R-J1-PDC; two malignant fibrous histiocytomas: 317291-083-R-J1-PDC and 596521-263-R-J1-PDC; two breast carcinomas: 171881-019-R-J1-PDC and 885512-296-R-J2-PDC; and one ovarian carcinoma: 6556581-035-R-J-PDC were obtained from the NCI PDMR, (https://pdmr.cancer.gov). The established cell lines HSSY-2 synovial sarcoma (RRID:CVCL 8719), SYO-1 synovial sarcoma (RRID:CVCL_7146), MPNST malignant peripheral neural sheath tumor were obtained from the Sloan Kettering Institute. The following established cell lines were purchased from the American Type Culture Collection (ATCC, Manassas, VA), Sor the received from the NCI repository:, PANC-1 pancreatic carcinoma (CRL-1469, RRID:CVCL_0480), OVCAR-5 ovarian carcinoma (RRID:CVCL_1628), OVCAR-8 ovarian carcinoma (RRID:CVCL_1629), , MCF-7 breast carcinoma (CRL-12584, RRID:CVCL_0031), MDA-MB-231 breast carcinoma (CRL-12532, RRID:CVCL_0062), NCI-H1876 small cell lung carcinoma (CRL-5902, RRID:CVCL_1503), NCI-H510A small cell lung carcinoma (HTB-184, RRID:CVCL_1565), NCI-H1417 (CRL-5869, RRID:CVCL_1469), and NCI-H196 small cell lung carcinoma (CRL-5823, RRID:CVCL_1509). Dr. Peter Houghton (Greehey Children's Cancer Research Institute, University of Texas Health Science Center, San Antonio, TX) provided Rh-18 rhabdomyosarcoma (RRID:CVCL_1659). Pooled donor human umbilical vein endothelial cells (HUVEC, Lonza, cat. CC-2519) and human mesenchymal stem cells (hMSC, Lonza, cat. PT-2501) were purchased from Lonza (Walkersville, MD).
Cell Culture. […]
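Throughout, for viability, T/C: spheroids exposed to compounds for 7 days.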

For `NC(=O)C(=Cn1cnc(-c2cc(C(F)(F)F)cc(C(F)(F)F)c2)n1)c1cncnc1` + Cc1c(S(C)(=O)=O)c(-c2cc(F)cc(N3CCN(c4ccc(NS(=O)(=O)c5ccc(NC(CCN6CCC(C(=O)OCCCP(=O)(O)O)CC6)CSc6ccccc6)c(S(=O)(=O)C(F)(F)F)c5)cc4)CC3)c2)c(-c2ccc(Cl)cc2)n1C(C)C, the IC50 (second compound 0.1 µM) was 25.4 nM, the IC50 (second compound 0.316 µM) was 18.8 nM and the IC50 (second compound 1 µM) was 17.3 nM. For the same compound, the IC50 (second compound 3.16 µM) was 13.5 nM, the IC50 (second compound 10 µM) was 9.39 nM and the viability, T/C (second compound 0.1 µM, first compound 0.000949 µM) was 102%. It also gave a viability, T/C (second compound 0.1 µM, first compound 0.003 µM) of 108%, a viability, T/C (second compound 0.1 µM, first compound 0.00949 µM) of 116% and a viability, T/C (second compound 0.1 µM, first compound 0.03 µM) of 40.1%. For the same compound, the viability, T/C (second compound 0.1 µM, first compound 0.0949 µM) was 4.69%, the viability, T/C (second compound 0.1 µM, first compound 0.3 µM) was 1.77% and the viability, T/C (second compound 0.316 µM, first compound 0.000949 µM) was 111%. The viability, T/C (second compound 0.316 µM, first compound 0.003 µM) was 159%, the viability, T/C (second compound 0.316 µM, first compound 0.00949 µM) was 84.5% and the viability, T/C (second compound 0.316 µM, first compound 0.03 µM) was 28.7%. The viability, T/C (second compound 0.316 µM, first compound 0.0949 µM) was 2.73%, the viability, T/C (second compound 0.316 µM, first compound 0.3 µM) was 1.39% and the viability, T/C (second compound 1 µM, first compound 0.000949 µM) was 144%. The viability, T/C (second compound 1 µM, first compound 0.003 µM) was 135%, the viability, T/C (second compound 1 µM, first compound 0.00949 µM) was 86.1% and the viability, T/C (second compound 1 µM, first compound 0.03 µM) was 16.6%. The viability, T/C (second compound 1 µM, first compound 0.0949 µM) was 2.27%, the viability, T/C (second compound 1 µM, first compound 0.3 µM) was 1.86% and the viability, T/C (second compound 3.16 µM, first compound 0.000949 µM) was 171%. For the same compound, the viability, T/C (second compound 3.16 µM, first compound 0.003 µM) was 151%, the viability, T/C (second compound 3.16 µM, first compound 0.00949 µM) was 65.4% and the viability, T/C (second compound 3.16 µM, first compound 0.03 µM) was 14.7%. The viability, T/C (second compound 3.16 µM, first compound 0.0949 µM) was 1.2%, the viability, T/C (second compound 3.16 µM, first compound 0.3 µM) was 0.46% and the viability, T/C (second compound 10 µM, first compound 0.000949 µM) was 183%. The viability, T/C (second compound 10 µM, first compound 0.003 µM) was 135%, the viability, T/C (second compound 10 µM, first compound 0.00949 µM) was 47.7% and the viability, T/C (second compound 10 µM, first compound 0.03 µM) was 13.5%. For the same compound, the viability, T/C (second compound 10 µM, first compound 0.0949 µM) was 1.03% and the viability, T/C (second compound 10 µM, first compound 0.3 µM) was 0.35%.

With `O=C(c1ccc(F)c(F)c1Nc1ccc(I)cc1F)N1CC(O)([C@@H]2CCCCN2)C1` + Cc1c(S(C)(=O)=O)c(-c2cc(F)cc(N3CCN(c4ccc(NS(=O)(=O)c5ccc(NC(CCN6CCC(C(=O)OCCCP(=O)(O)O)CC6)CSc6ccccc6)c(S(=O)(=O)C(F)(F)F)c5)cc4)CC3)c2)c(-c2ccc(Cl)cc2)n1C(C)C the IC50 (second compound 0.1 µM) was 207 nM, the IC50 (second compound 0.316 µM) was 164 nM and the IC50 (second compound 1 µM) was 125 nM. It also gave an IC50 (second compound 3.16 µM) of 87.3 nM, an IC50 (second compound 10 µM) of 106 nM and a viability, T/C (second compound 0.1 µM, first compound 0.00316 µM) of 98.9%. The viability, T/C (second compound 0.1 µM, first compound 0.01 µM) was 110%, the viability, T/C (second compound 0.1 µM, first compound 0.0316 µM) was 222% and the viability, T/C (second compound 0.1 µM, first compound 0.1 µM) was 97.6%. For the same compound, the viability, T/C (second compound 0.1 µM, first compound 0.316 µM) was 25.8%, the viability, T/C (second compound 0.1 µM, first compound 1 µM) was 18.8% and the viability, T/C (second compound 0.316 µM, first compound 0.00316 µM) was 109%. It also gave a viability, T/C (second compound 0.316 µM, first compound 0.01 µM) of 194%, a viability, T/C (second compound 0.316 µM, first compound 0.0316 µM) of 186% and a viability, T/C (second compound 0.316 µM, first compound 0.1 µM) of 75.9%. The viability, T/C (second compound 0.316 µM, first compound 0.316 µM) was 18.7%, the viability, T/C (second compound 0.316 µM, first compound 1 µM) was 12.3% and the viability, T/C (second compound 1 µM, first compound 0.00316 µM) was 136%. The viability, T/C (second compound 1 µM, first compound 0.01 µM) was 193%, the viability, T/C (second compound 1 µM, first compound 0.0316 µM) was 158% and the viability, T/C (second compound 1 µM, first compound 0.1 µM) was 59.2%. It also gave a viability, T/C (second compound 1 µM, first compound 0.316 µM) of 13.7%, a viability, T/C (second compound 1 µM, first compound 1 µM) of 6.11% and a viability, T/C (second compound 3.16 µM, first compound 0.00316 µM) of 156%. It also gave a viability, T/C (second compound 3.16 µM, first compound 0.01 µM) of 182%, a viability, T/C (second compound 3.16 µM, first compound 0.0316 µM) of 115% and a viability, T/C (second compound 3.16 µM, first compound 0.1 µM) of 44.8%. It also gave a viability, T/C (second compound 3.16 µM, first compound 0.316 µM) of 8.8%, a viability, T/C (second compound 3.16 µM, first compound 1 µM) of 3.61% and a viability, T/C (second compound 10 µM, first compound 0.00316 µM) of 175%. The viability, T/C (second compound 10 µM, first compound 0.01 µM) was 174%, the viability, T/C (second compound 10 µM, first compound 0.0316 µM) was 118% and the viability, T/C (second compound 10 µM, first compound 0.1 µM) was 54.9%. The viability, T/C (second compound 10 µM, first compound 0.316 µM) was 12% and the viability, T/C (second compound 10 µM, first compound 1 µM) was 3.48%.
